The values that follow are results of earlier work, collected in patent US20030039708A1, “NON-MA HUANG HERB WEIGHT LOSS PRODUCT” (priority 2001, published 2003).

Read-outs that look alike come from different tables or passages of the source.

For data set [1] the following is noted: in vivo.
For data set [2] the following is noted: obese patients.
For data set [3] the following is noted: placed in water.
The conditions of data set [4]: double-blind study.
The conditions of data set [5]: placebo group gained weight over the length of the trial.
The conditions of data set [6]: in combination with diet, versus diet alone.
Test in data set [7]: not given
This is another data set of the same source.

Consider `O=C(O[C@@H]1Cc2c(O)cc(O)cc2O[C@@H]1c1cc(O)c(O)c(O)c1)c1cc(O)c(O)c(O)c1` [Epigallocatechin gallate], for which, in data set [1], the blood cholesterol entry was “significantly reduced”, the blood triglyceride entry is listed as “significantly reduced”, the body weight result is listed as “significantly reduced” and the food intake result is listed as “significantly reduced”. Further, the “growth of the prostate, uterus, and ovary” value in data set [1] is on record as “significantly reduced”.
For the compound `[Cr]` [chromium], the lean body mass entry in data set [2] is “increased”. Also, for the setting “placebo group gained 6.5%”, the abdominal fat gained is listed as 1%. Under “statistically significant, maintained at the end of eight months”, the “reduction of insulin resistance” value is on record as 40%.
For the compound Glucomannan, the swelling in water entry in data set [3] is on record as “up to 17 times its original volume”. For the same compound, in data set [4], the HDL cholesterol result is “no significant increase”, the LDL cholesterol result is listed as “significant reductions”, the systolic blood pressure result is given as “reduced” and the total cholesterol entry is recorded as “significant reductions”. The triglycerides entry in data set [4] is “significant reductions”. In data set [5], the body weight change result is given as “weight loss”. Also, in data set [6], the blood glucose result is “more effective than diet alone”; the body weight entry is given as “more effective than diet alone”; the “hunger and satiety sensation” value is recorded as “more effective than diet alone”; the total serum cholesterol entry is recorded as “more effective than diet alone”. Moreover, the tolerability result in data set [7] (long term treatment of severe obesity) is given as “well tolerated”. In data set [7] (severely obese patients, diet plus glucomannan), the “weight loss in relation to the fatty mass alone” value is on record as “more significant weight loss”.
